Results: patent US10900069B2, “Devices and methods useful for detecting mechanical forces of ligand receptor interactions” (Emory University, priority 2016, dated 2021)

What was measured:
[1] = system: NIH/3T3 cells; assay: Brightfield imaging and F-actin staining of drug treated cells; format: cell-based
[2] = system: integrin mediated tension in NIH/3T3 cells; assay: Dose-dependent inhibition of integrin mediated tension quantified by MCR; format: cell-based; settings: NIH/3T3 cells pretreated 15 min with blebbistatin (10 nm-10 mm as printed), 1 h on 12 pN duplexes
Protocol: The non-muscle myosin II inhibitor blebbistatin, which diminishes myosin contractility and thus reduces forces transmitted by focal adhesions, was investigated. NIH/3T3 cells were pretreated with a range of blebbistatin concentrations (10 nm-[…]) for 15 min. The cells onto the surface were incubated with the 12 pN duplexes for 1 h, which was then followed by MCR readout. […] The MCR signal is a direct readout of integrin tension, measuring the dose-dependent dissipation of actomyosin contractile forces.
Cells were incubated with the cRGDfK-labelled duplex surfaces in DMEM for 1 h to promote cell adhesion. Surfaces were then washed with 0.1×SSC. Subsequently, surfaces were incubated in 1× CutSmart® buffer (20 mM Tris-acetate, 10 mM Mg(OAc)2, 50 mM KOAc, 100 μg/mL BSA, pH 7.9) with 100 nM circular template and 1 U/μL T4 ligase at 37° C. for 2 h to ensure complete ligation. Then, 250 μM dNTPs and 0.1 U/μL Phi 29 polymerase were added to the solutions and mixed well. The surfaces were incubated at 37° C. for 90 min to allow for rolling circle amplification. […] Finally, the surface was incubated with 100 nM Cy3B-FISH probe in hybridization buffer (0.5 M NaCl, 20 mM Tris-HCl, 20 mM EDTA, and 0.01% Tween, pH=7.4) at 37° C. for 30 min, rinsed with three washes of 0.1×TNT/0.1% SDS and subjected to fluorescence imaging. […]

Q: What does the source list for `Cc1ccc2c(c1)C(=O)C1(O)CCN(c3ccccc3)C1=N2` (stereo not drawn) [blebbistatin]?
A: F-actin staining ([1]; highest blebbistatin doses): more disorganized and shorter actin filaments; cell shape by brightfield imaging ([1]; increasing drug dose): cells become more rounded with increasing drug dose; MCR signal [2]: dose-dependent relationship
